A short description of this data set: in vitro. The note with it: human, hela cells, % viability.

One may read the viability as a read-out of living cells in per cent, often relative to untreated cells. On to `O=C(NCc1ccccc1)c1cccc(NC(=O)c2cc(-c3ccccn3)nc3ccc(Cl)cc23)c1` [CBK267768], for which the viability at 28.5 h, 10 µM turned out to be 94%.

In the case of `O=C(NCc1ccccc1)c1cccc(NC(=O)c2cc(-c3ccncc3)nc3ccc(Cl)cc23)c1` [CBK267769], the viability at 28.5 h, 10 µM was 117%.

`NS(=O)(=O)c1ccc(CNC(=O)c2cc(-c3ccncc3)nc3ccc(Cl)cc23)cc1` [CBK267770]: the viability at 28.5 h, 10 µM was 101%.

Consider `CCN(CC)C(=O)c1sc(NC(=O)c2cc(-c3ccncc3)nc3c(C)cccc23)c(C#N)c1C` [CBK267771], for which the viability at 28.5 h, 10 µM was 93.6%.

Regarding `Cc1cc(C)c2nc(-c3ccccn3)cc(C(=O)Nc3ccc(S(=O)(=O)Nc4onc(C)c4C)cc3)c2c1` [CBK267775], the viability at 28.5 h, 10 µM was 92.9%.

For the compound `COc1ccc(OC)c(S(=O)(=O)N2CCN(C(=O)c3cc(-c4ccncc4)nc4c(C)cc(C)cc34)CC2)c1` [CBK267778], the viability at 28.5 h, 10 µM was determined as 103%.

With `COc1ccccc1-c1cc(C(=O)NCCCN2CCOCC2)c2ccccc2n1` [CBK267780], the viability at 28.5 h, 10 µM came to 83.8%.

As to `CC(=O)c1ccc(N2CCN(C(=O)c3cc(-c4ccncc4)nc4ccc(Cl)cc34)CC2)cc1` [CBK267781], the viability at 28.5 h, 10 µM worked out at 91.8%.

Take `Cc1ccc2nc(-c3ccccn3)cc(C(=O)NCc3ccccn3)c2c1` [CBK267782]: the viability at 28.5 h, 10 µM turned out to be 86.6%.

For `CC(C)(C)NS(=O)(=O)c1ccc(NC(=O)c2cc(-c3ccccn3)nc3c(Cl)cccc23)cc1` [CBK267783], the viability at 28.5 h, 10 µM is 99.6%.

Regarding `CC(=O)Nc1cc(C(=O)Nc2ccc(Br)cc2)ccc1C` [CBK267788], the viability at 28.5 h, 10 µM came out at 84.1%.

On to `Cc1ccc(O)c(NC(=O)c2cccc(S(=O)(=O)N3CCCCC3)c2)c1` [CBK267790], for which the viability at 28.5 h, 10 µM worked out at 83.3%.

`Cc1cc(Cl)cc(Br)c1OCCNCCN(C)C` [CBK267791G]: the viability at 28.5 h, 10 µM came to 102%.

For the compound `O=[N+]([O-])c1ccc(-c2ccc(/C=C/c3cc(O)c4ccccc4n3)o2)cc1` [CBK267792], the viability at 28.5 h, 10 µM stood at 92.1%.

Turning to `CN(C)S(=O)(=O)c1cccc(C(=O)NCCc2ccccc2)c1` [CBK267793], the viability at 28.5 h, 10 µM turned out to be 91.3%.

Regarding `O=[N+]([O-])c1cc2c(cc1C(Nc1ccccn1)c1cc(Cl)c3cccnc3c1O)OCO2` (centres unmarked) [CBK267795], the viability at 28.5 h, 10 µM is 83%.

As for `O=C(Nc1ccccc1[N+](=O)[O-])C1(c2ccccc2)CCN(S(=O)(=O)c2ccccc2)CC1` [CBK267796], the viability at 28.5 h, 10 µM was found to be 85.9%.

On to `O=C(O)c1[nH]c2ccccc2c1C(c1c(F)cccc1Cl)c1c(C(=O)O)[nH]c2ccccc12` [CBK267797], for which the viability at 28.5 h, 10 µM is 87.4%.

For the compound `O=C(OCc1ccccc1F)c1cccc(-c2nnc(-c3ccccc3)o2)c1` [CBK267798], the viability at 28.5 h, 10 µM was found to be 84.6%.

`O=C(CSCc1c(Cl)cccc1Cl)NN1C(=O)c2ccccc2C1=O` [CBK267800]: the viability at 28.5 h, 10 µM worked out at 101%.

Regarding `Cc1ccc(SCCCCn2cnc3ccccc32)cc1` [CBK267801G], the viability at 28.5 h, 10 µM was determined as 103%.

In the case of `O=C(c1c[nH]c2ccccc12)C(O)C(c1ccccc1)N1CCOCC1` (centres unmarked) [CBK267802], the viability at 28.5 h, 10 µM was found to be 95.4%.

`Cc1ccc(SCCCNCCN(C)C)cc1` [CBK267807C]: the viability at 28.5 h, 10 µM was 92.2%.

For `Cc1cc(Br)cc(C)c1OCCNCCN(C)C` [CBK267808G], the viability at 28.5 h, 10 µM stood at 106%.

As to `O=C(O)c1ccc(NC(=O)c2ccc(S(=O)(=O)N3CCCCC3)cc2)cc1` [CBK267813], the viability at 28.5 h, 10 µM was found to be 94.2%.

As to `O=C(CSCc1c(Cl)cccc1Cl)Nc1ccc(-c2nnc(-c3ccccc3)o2)cc1` [CBK267817], the viability at 28.5 h, 10 µM was 99.7%.

With `CC(=O)Nc1ccc(S(=O)(=O)Nc2ccc(-c3nc4cc(C(=O)c5ccccc5)ccc4[nH]3)cc2)cc1` [CBK267819], the viability at 28.5 h, 10 µM worked out at 99.2%.

Consider `O=[N+]([O-])c1ccccc1OCCCn1cnc2ccccc21` [CBK267820G], for which the viability at 28.5 h, 10 µM was 44.2%.

Take `Cc1ccc([N+](=O)[O-])c(OCCNCCN(C)C)c1` [CBK267822C]: the viability at 28.5 h, 10 µM turned out to be 89%.

For `O=C(NCc1ccc2c(c1)OCO2)c1ccc2c(c1)C(=O)N(Cc1cccnc1)C2=O` [CBK267824], the viability at 28.5 h, 10 µM stood at 89.3%.

Consider `Cc1cc(S(=O)(=O)NC2CCCCC2)ccc1OCC(=O)O` [CBK267832], for which the viability at 28.5 h, 10 µM was 104%.

`COc1ccc(S(=O)(=O)N(CC(=O)O)c2ccc(Cl)cc2)cc1OC` [CBK267836]: the viability at 28.5 h, 10 µM is 97.5%.

Turning to `Clc1ccccc1-c1nnn(Cc2ccc(-c3nnn[nH]3)cc2)n1` [CBK267838], the viability at 28.5 h, 10 µM worked out at 89.3%.

Consider `c1ccc(CSc2nnc3[nH]c4ccccc4n23)cc1` [CBK267841], for which the viability at 28.5 h, 10 µM came out at 91.9%.

For the compound `CCN1CCN(CCNC(=O)Nc2ccccc2C)CC1` [CBK267842], the viability at 28.5 h, 10 µM stood at 108%.

As for `O=C(Nc1ccc(OCc2nc3ccccc3s2)cc1)c1cccc(I)c1` [CBK267843], the viability at 28.5 h, 10 µM worked out at 119%.

On to `COc1ccc(-c2nc(=S)c3c(n2CCCN(C)C)CC(C)(C)OC3)cc1` [CBK267844], for which the viability at 28.5 h, 10 µM worked out at 104%.

As for `CCN1CCCC1Cn1c(=S)[nH]c2ccccc2c1=O` (centres unmarked) [CBK267849], the viability at 28.5 h, 10 µM turned out to be 92.8%.

As for `O=C(CN1CCN(Cc2ccccc2)CC1)Nc1cccc(Cl)c1` [CBK267850], the viability at 28.5 h, 10 µM is 113%.

On to `CS(=O)(=O)Nc1ccc(C(=O)Nc2ccc(S(=O)(=O)Nc3nccs3)cc2)cc1` [CBK267856], for which the viability at 28.5 h, 10 µM is 97.3%.

As to `CC(=O)Nc1ccc(OCC(O)CNC2CCCC2)cc1` (centres unmarked) [CBK267857C], the viability at 28.5 h, 10 µM stood at 87.6%.

For the compound `COc1ccc(NC(=S)NC(=N)N2CCN(Cc3ccccc3)CC2)cc1` [CBK267858], the viability at 28.5 h, 10 µM amounted to 95.1%.

As for `COc1ccc(C)cc1S(=O)(=O)N(C)CC(=O)O` [CBK267863], the viability at 28.5 h, 10 µM came out at 106%.

Consider `Cc1ccc(CSCCNS(=O)(=O)c2cccc([N+](=O)[O-])c2)cc1` [CBK267864], for which the viability at 28.5 h, 10 µM is 108%.

`COc1ccc(C(C)(C)C)cc1S(=O)(=O)NC1CC(C)(C)NC(C)(C)C1` [CBK267865]: the viability at 28.5 h, 10 µM was 102%.

For `O=C(CSc1nnc(COc2ccccc2)o1)c1cccc([N+](=O)[O-])c1` [CBK267868], the viability at 28.5 h, 10 µM came out at 104%.

`CC(NS(=O)(=O)c1cc(Cl)ccc1Cl)C(=O)Nc1ccccc1` (centres unmarked) [CBK267871]: the viability at 28.5 h, 10 µM was 110%.

In the case of `O=C(CSc1nnc(-c2ccccc2O)n1-c1ccccc1)Nc1ccc(N2CCOCC2)cc1` [CBK267874], the viability at 28.5 h, 10 µM amounted to 103%.

Turning to `Nc1n[nH]c(SCC(=O)Nc2ccc(Br)cc2Cl)n1` [CBK267875], the viability at 28.5 h, 10 µM amounted to 95.3%.

Turning to `O=C(Nc1ccc2oc(-c3cccnc3)nc2c1)c1sc2cc(Cl)ccc2c1Cl` [CBK267876], the viability at 28.5 h, 10 µM stood at 97.4%.

With `N=C(NC(=S)Nc1ccccc1)N1CCN(Cc2ccccc2)CC1` [CBK267878], the viability at 28.5 h, 10 µM is 106%.

Consider `COc1ccc(C)cc1S(=O)(=O)NCCO` [CBK267881], for which the viability at 28.5 h, 10 µM came to 98.4%.

With `COc1ccc(S(=O)(=O)N(C)CC(=O)Nc2cccc(F)c2)cc1Cl` [CBK267882], the viability at 28.5 h, 10 µM is 90%.

Take `CCOc1ccc(-c2cn(S(=O)(=O)c3cccc4nsnc34)nc2N)cc1` [CBK267883]: the viability at 28.5 h, 10 µM was found to be 102%.

For `CN1CCN(C2=NC(=O)CC(C(=O)Nc3ccccc3)N2)CC1` (centres unmarked) [CBK267884], the viability at 28.5 h, 10 µM was 97.1%.

`O=C(O)CCc1ccc(-c2cccs2)n1CCOc1ccccc1Cl` [CBK267885]: the viability at 28.5 h, 10 µM was 89%.

Regarding `Cc1ccc(N(C(C)C(=O)Nc2ccccc2-c2ccccc2)S(C)(=O)=O)cc1` (centres unmarked) [CBK267889], the viability at 28.5 h, 10 µM is 105%.

`Cc1cc(C)cc(OCc2nnc(SCC(=O)Nc3cc(C(F)(F)F)ccc3Cl)o2)c1` [CBK267890]: the viability at 28.5 h, 10 µM is 94.6%.

On to `O=C(Cn1ncc2ccccc2c1=O)NNC(=S)NC1CC2CCC1C2` (centres unmarked) [CBK267892], for which the viability at 28.5 h, 10 µM is 106%.

With `CN1CCN(c2ccccc2NC(=O)c2cccc3c(Br)cccc23)CC1` [CBK267894], the viability at 28.5 h, 10 µM came to 92.9%.

For `CCn1cc(C(=O)O)c(=O)c2cnc(N3CCN(C(=S)Nc4ccc5c(c4)OCCO5)CC3)nc21` [CBK267895], the viability at 28.5 h, 10 µM came to 95.8%.

On to `O=C(NCc1ccccc1)c1ccc(NC(=O)c2cc(-n3cnnc3)ccc2Cl)cc1` [CBK267896], for which the viability at 28.5 h, 10 µM worked out at 99.2%.

Consider `N#C/C(=C\c1cn(CCC(N)=O)c2ccccc12)Sc1nc2ccccc2s1` [CBK267897], for which the viability at 28.5 h, 10 µM was found to be 103%.

For the compound `O=C(CSc1nnnn1C1CC2CCC1C2)Nc1ccnc2ccccc12` (centres unmarked) [CBK267901], the viability at 28.5 h, 10 µM worked out at 89.4%.

With `C/C(N)=C(/C#N)C(NC(=O)C1CCCCC1)(C(F)(F)F)C(F)(F)F` [CBK267902], the viability at 28.5 h, 10 µM was 91.1%.

With `O=C1c2ccccc2S(=O)(=O)N1CC(O)Cn1ccc2ccccc21` (centres unmarked) [CBK267905], the viability at 28.5 h, 10 µM was found to be 97.6%.

For `COc1cccc(CNc2ccc(S(N)(=O)=O)cc2)c1OCc1ccccc1F` [CBK267906], the viability at 28.5 h, 10 µM turned out to be 108%.

In the case of `COc1cc(S(=O)(=O)NC2CC(C)(C)NC(C)(C)C2)ccc1Br` [CBK267908], the viability at 28.5 h, 10 µM is 87.4%.

Turning to `CN1CCN(c2ccccc2NC(=S)NC(=O)c2ccco2)CC1` [CBK267909], the viability at 28.5 h, 10 µM was 85.2%.

On to `Cc1nnc(NCCN2CCOCC2)nc1O` [CBK267912], for which the viability at 28.5 h, 10 µM is 98.5%.

For `CC(CCc1ccccc1)NC(=O)CCC(=O)O` (centres unmarked) [CBK267918], the viability at 28.5 h, 10 µM stood at 86.6%.

In the case of `CC(C)NS(=O)(=O)c1ccc(OCC(=O)Nc2ccc3c(c2)OCO3)c(Cl)c1` [CBK267919], the viability at 28.5 h, 10 µM worked out at 92.5%.

Turning to `CC(C)NS(=O)(=O)c1ccc(NC(=O)COc2ccc3ccccc3c2Br)cc1` [CBK267920], the viability at 28.5 h, 10 µM turned out to be 94.3%.

`Cc1ccc(OCCSc2nnc3[nH]c4ccccc4n23)cc1` [CBK267922]: the viability at 28.5 h, 10 µM was 96.2%.

Consider `Cc1cc(Cn2ccc(C(F)(F)F)n2)c(C)c(-c2c(C#N)c(N)nc3c2CCCCC3)c1` [CBK267928], for which the viability at 28.5 h, 10 µM came out at 104%.

As to `CS(=O)(=O)N(CC(=O)Nc1ccccc1C(=O)N1CCOCC1)c1ccc(F)c(Cl)c1` [CBK267931], the viability at 28.5 h, 10 µM worked out at 98.1%.

`Cc1[nH]c2ccccc2c1C(=O)CSc1nc2scc(-c3ccco3)c2c(=O)n1-c1ccccc1` [CBK267933]: the viability at 28.5 h, 10 µM is 93.3%.

For the origin of these results see PMC12040169 (PLOS Biology, 2025).
